Source: patent publication US9249163B2, “PDE10a inhibitors for the treatment of type II diabetes” (Janssen Pharmaceutica, NV, priority 2013, dated 2016)
pIC50: −log10 of the molar value. Structures can show the parent of a compound that is named as a salt.

Columns and labels:
[1] = PDE10a-perfused brain permeability study (plasma and brain concentrations); conditions: male, Sprague-Dawley, rat; for Kp at 2 h: brain/plasma
Description: Drug administration by oral gavage, subcutaneous injection or intravenous was carried out using male Sprague Dawley rats under IACUC protocol (SH-MET3010). Male Sprague Dawley rats (Charles River) ˜300-350 g were maintained on a 4% standard rodent diet (Test Diet 5001). They are allowed ad libitum access to water and food. Room temperature was maintained at 64° F. and humidity at 30-70%.
Three animals per compound were provided a dose of 2 mg/mL in 20% HpbCD/Tris pH 8 by tail i.v. or 30 mpk p.o. or s.c. in 20% HpbCD/Tris pH 8, with PDE10a antagonists. A first blood sample was collected at 30 min via retro-orbital sinus (anesthetic by 70% CO2/30% O2) into heparinzed plasma separator tubes. The blood was centrifuged and 100 uL plasma was placed into a 96 well plate and saved on dry ice.
After the 120 min, the final blood sample was collected via retro-orbital sinus under anesthesia by IP 0.5 cc injection of a 4/1 mixture of Ketaset: AnaSed [(prepared 10 mL Ketaset (100 mg/mL Ketamine)+2.5 mL AnaSed (20 mg/mL Xylazine)]. The rats were then perfused with 400 mL heparinized saline (10,000 units/L) through the left ventricle of the heart; the brains were then removed (not including the medulla), weighed and homogenized in PBS (4 mL/g tissue). The samples were stored at −80° C. and submitted for chemical analysis of blood and brain concentrations. Endpoints of sample analysis consists of the plasma concentrations at 30 and 120 min, plus brain concentrations at 120 min.

[2] = molecular target: Human recombinant PDE10A2 (Homo sapiens (Human), UniProt Q9Y233); experiment: In vitro hPDE10a (human recombinant PDE10A2, scintillation proximity assay); type: biochemical; conditions: human recombinant PDE10A2, 60 nM cAMP, 60 min at room temperature; read-out: hPDE10a2 IC50
Chain of Human recombinant PDE10A2 (Q9Y233 267-1055): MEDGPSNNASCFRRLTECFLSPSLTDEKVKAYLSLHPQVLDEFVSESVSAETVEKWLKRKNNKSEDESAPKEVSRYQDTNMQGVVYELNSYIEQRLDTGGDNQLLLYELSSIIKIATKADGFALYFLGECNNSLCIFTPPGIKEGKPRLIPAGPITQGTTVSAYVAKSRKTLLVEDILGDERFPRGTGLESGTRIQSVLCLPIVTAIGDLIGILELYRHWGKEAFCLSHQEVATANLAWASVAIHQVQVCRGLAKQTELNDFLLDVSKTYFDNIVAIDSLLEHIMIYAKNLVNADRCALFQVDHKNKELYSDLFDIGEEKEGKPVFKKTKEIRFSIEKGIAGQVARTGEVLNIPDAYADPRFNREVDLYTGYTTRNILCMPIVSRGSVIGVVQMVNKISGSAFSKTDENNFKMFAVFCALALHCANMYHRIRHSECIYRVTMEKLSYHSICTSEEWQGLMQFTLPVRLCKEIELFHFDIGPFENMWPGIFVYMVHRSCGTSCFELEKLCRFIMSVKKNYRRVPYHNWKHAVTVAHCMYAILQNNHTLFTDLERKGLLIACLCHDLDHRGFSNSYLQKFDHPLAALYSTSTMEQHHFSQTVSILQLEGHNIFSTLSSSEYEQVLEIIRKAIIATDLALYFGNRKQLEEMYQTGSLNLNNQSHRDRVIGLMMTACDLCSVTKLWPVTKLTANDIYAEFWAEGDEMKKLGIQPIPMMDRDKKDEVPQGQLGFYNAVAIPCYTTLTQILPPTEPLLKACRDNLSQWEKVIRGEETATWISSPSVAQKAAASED

[3] = molecular target: Rat recombinant PDE10a (rPDE10a) (Rattus norvegicus (Rat), UniProt Q9QYJ6); experiment: In vitro assay PDE10a (rat recombinant PDE10a, SPA); type: biochemical; conditions: 60 nM cAMP, 60 min at rt, read-out: rPDE10a2 IC50
Chain of Rat recombinant PDE10a (rPDE10a) (Q9QYJ6 whole entry): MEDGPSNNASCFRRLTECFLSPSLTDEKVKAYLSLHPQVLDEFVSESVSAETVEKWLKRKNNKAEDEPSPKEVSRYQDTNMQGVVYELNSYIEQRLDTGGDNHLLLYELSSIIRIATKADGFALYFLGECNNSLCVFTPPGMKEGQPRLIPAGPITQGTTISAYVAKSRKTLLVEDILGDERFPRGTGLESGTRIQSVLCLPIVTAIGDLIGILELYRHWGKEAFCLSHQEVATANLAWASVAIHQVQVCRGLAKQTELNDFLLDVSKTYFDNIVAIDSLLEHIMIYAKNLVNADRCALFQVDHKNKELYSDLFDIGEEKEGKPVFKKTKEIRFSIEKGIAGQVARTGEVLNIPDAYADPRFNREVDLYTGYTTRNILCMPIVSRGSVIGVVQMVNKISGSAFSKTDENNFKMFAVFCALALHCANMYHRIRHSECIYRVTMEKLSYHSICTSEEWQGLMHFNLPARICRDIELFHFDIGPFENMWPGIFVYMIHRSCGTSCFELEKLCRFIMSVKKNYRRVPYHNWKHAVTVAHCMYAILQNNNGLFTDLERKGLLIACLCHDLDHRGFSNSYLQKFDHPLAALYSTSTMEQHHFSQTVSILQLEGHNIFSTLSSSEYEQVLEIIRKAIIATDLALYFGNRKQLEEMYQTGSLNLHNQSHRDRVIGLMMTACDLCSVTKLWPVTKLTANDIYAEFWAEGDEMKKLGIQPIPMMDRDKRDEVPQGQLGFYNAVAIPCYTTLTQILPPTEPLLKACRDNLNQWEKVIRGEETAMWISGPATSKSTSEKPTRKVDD
Method in brief: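 Rat PDE10a expressed in Sf9 cells (baculovirus) and Ni-sepharose purified. Incubated with compound for 60 min at rt in 50 mM Tris pH 7.8, 8.3 mM MgCl2, 1.7 mM EGTA with 60 nM cAMP plus 0.008 μCi ^3H-cAMP (final), 1% DMSO. Read-out by PDE SPA bead scintillation counting (cpm), no-enzyme blank.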

Compound | concentration at 2 h ([1]; brain) | Kp at 2 h [1] | concentration at 2 h ([1]; plasma) | pIC50 [2] | pIC50 [3]
O=C(O)C1CCN(c2ccc(-c3cnc(N4CCOCC4)c4nc(/C=C/c5ccc6ccccc6n5)cn34)cc2)CC1 [Cpd 14, (E)-1-(4-(8-Morpholino-2-(2-(quinolin-2-yl)vinyl)imidazo[1,2-a]pyrazin-5-yl)phenyl)piperidine-4-carboxylic acid trifluoroacetic acid salt] | 35.5 ng/g | 0.07 | 503 ng/mL | 8.22 | 7.96
O=C(O)c1ccc(-c2cnc(N3CCOCC3)c3nc(/C=C/c4ccc5ccccc5n4)cn23)cc1 [Cpd 16, (E)-4-(8-morpholino-2-(2-(quinolin-2-yl)vinyl)imidazo[1,2-a]pyrazin-5-yl)benzoic acid trifluoroacetic acid salt] | 0 ng/g | 0 | 142 ng/mL | – | –
O=c1[nH]nnn1-c1ccc(-c2cnc(N3CCOCC3)c3nc(/C=C/c4ccc5ccccc5n4)cn23)cc1 [Cpd 55, (E)-1-(4-(8-Morpholino-2-(2-(quinolin-2-yl)vinyl)imidazo[1,2-a]pyrazin-5-yl)phenyl)-1H-tetrazol-5(4H)-one] | 0 ng/g | 0 | 118 ng/mL | – | –
CC(=O)NS(=O)(=O)c1ccc(-c2cnc(N3CCOCC3)c3nc(CCc4ccc5ccccc5n4)cn23)cc1 [Cpd 63, N-((4-(8-Morpholino-2-(2-(quinolin-2-yl)ethyl)imidazo[1,2-a]pyrazin-5-yl)phenyl)sulfonyl)acetamide] | 0 ng/g | 0 | 2 ng/mL | – | > 9.00
c1ccc2nc(OCc3cn4c(-c5ccc(Sc6nnc[nH]6)nc5)cnc(N5CCOCC5)c4n3)ccc2c1 [Cpd 100, 4-(5-(6-((4H-1,2,4-triazol-3-yl)thio)pyridin-3-yl)-2-((quinolin-2-yloxy)methyl)imidazo[1,2-a]pyrazin-8-yl)morpholine] | – | – | – | 7.54 | 7.42
O=C(O)Cc1ccc(-c2cnc(N3CCOCC3)c3nc(COc4ccc5ccccc5n4)cn23)cn1 [Cpd 101, 2-(5-(8-Morpholino-2-((quinolin-2-yloxy)methyl)imidazo[1,2-a]pyrazin-5-yl)pyridin-2-yl)acetic acid] | – | – | – | 7.82 | 7.70
c1ccc2nc(CCc3cn4c(-c5ccc(N6CCNCC6)nc5)cnc(N5CCOCC5)c4n3)ccc2c1 [Cpd 102, 4-(5-(6-(piperazin-1-yl)pyridin-3-yl)-2-(2-(quinolin-2-yl)ethyl)imidazo[1,2-a]pyrazin-8-yl)morpholine trifluoroacetic acid salt] | – | – | – | 7.46 | 7.77
C(=C\c1ncccn1)/c1cn2c(-c3ccc(N4CCNCC4)nc3)cnc(N3CCOCC3)c2n1 [Cpd 103, (E)-4-(5-(6-(Piperazin-1-yl)pyridin-3-yl)-2-(2-(pyrimidin-2-yl)vinyl)imidazo[1,2-a]pyrazin-8-yl)morpholine] | – | – | – | 6.17 | 6.21
C(=C\c1ncc2ccccc2n1)/c1cn2c(-c3ccc(N4CCNCC4)nc3)cnc(N3CCOCC3)c2n1 [Cpd 104, (E)-4-(5-(6-(Piperazin-1-yl)pyridin-3-yl)-2-(2-(quinazolin-2-yl)vinyl)imidazo[1,2-a]pyrazin-8-yl)morpholine] | – | – | – | 6.89 | 7.17
C(=C\c1cn2c(-c3ccc(N4CCNCC4)nc3)cnc(N3CCOCC3)c2n1)/c1ccc2ccccc2n1 [Cpd 105, (E)-4-(5-(6-(piperazin-1-yl)pyridin-3-yl)-2-(2-(quinolin-2-yl)vinyl)imidazo[1,2-a]pyrazin-8-yl)morpholine trifluoroacetic acid salt] | – | – | – | 7.30 | 7.66
c1ccc2nc(OCc3cn4c(-c5ccc(C6CCNCC6)nc5)cnc(N5CCOCC5)c4n3)ccc2c1 [Cpd 106, 4-(5-(6-(Piperidin-4-yl)pyridin-3-yl)-2-((quinolin-2-yloxy)methyl)imidazo[1,2-a]pyrazin-8-yl)morpholine trifluoroacetic acid salt] | – | – | – | 7.05 | 7.82
C1=C(c2ccc(-c3cnc(N4CCOCC4)c4nc(COc5ccc6ccccc6n5)cn34)cn2)CCNC1 [Cpd 108, 4-(2-((quinolin-2-yloxy)methyl)-5-(1′,2′,3′,6′-tetrahydro-[2,4′-bipyridin]-5-yl)imidazo[1,2-a]pyrazin-8-yl)morpholine methane sulfonic acid salt] | – | – | – | 7.46 | 7.64
COC1CCN(c2ncc(-c3ccc(N4CCNCC4)nc3)n3cc(COc4ccc5ccccc5n4)nc23)CC1 [Cpd 112, 2-((8-(4-Methoxypiperidin-1-yl)-5-(6-(piperazin-1-yl)pyridin-3-yl)imidazo[1,2-a]pyrazin-2-yl)methoxy)quinoline trifluoroacetic acid salt] | – | – | – | 7.05 | 7.02
CC(=O)N1CCN(c2ncc(-c3ccc(N4CCNCC4)nc3)n3cc(COc4ccc5ccccc5n4)nc23)CC1 [Cpd 113] | – | – | – | 6.65 | 6.82
c1ccc2nc(C3CN(c4cn5c(-c6ccc(N7CCNCC7)nc6)cnc(N6CCOCC6)c5n4)C3)ccc2c1 [Cpd 114, 4-(5-(6-(piperazin-1-yl)pyridin-3-yl)-2-(3-(quinolin-2-yl)azetidin-1-yl)imidazo[1,2-a]pyrazin-8-yl)morpholine trifluoroacetic acid salt] | – | – | – | 5.87 | 5.70
O=C1CN(c2ncc(-c3ccc(N4CCNCC4)nc3)n3cc(COc4ccc5ccccc5n4)nc23)CCN1 [Cpd 115, 4-(5-(6-(piperazin-1-yl)pyridin-3-yl)-2-((quinolin-2-yloxy)methyl)imidazo[1,2-a]pyrazin-8-yl)piperazin-2-one trifluoroacetic acid salt] | – | – | – | 7.07 | 7.40
c1cnc(OCc2cn3c(-c4ccc(N5CCNCC5)nc4)cnc(N4CCOCC4)c3n2)nc1 [Cpd 116, 4-(5-(6-(piperazin-1-yl)pyridin-3-yl)-2-((pyrimidin-2-yloxy)methyl)imidazo[1,2-a]pyrazin-8-yl)morpholine trifluoroacetic acid salt] | – | – | – | 5.58 | 5.44
O=S1(=O)CCN(c2ncc(-c3ccc(N4CCNCC4)nc3)n3cc(COc4ccc5ccccc5n4)nc23)CC1 [Cpd 117, 4-(5-(6-(Piperazin-1-yl)pyridin-3-yl)-2-((quinolin-2-yloxy)methyl)imidazo[1,2-a]pyrazin-8-yl)thiomorpholine 1,1-dioxide trifluoroacetic acid salt] | – | – | – | 7.25 | 7.49
OC1CCN(c2ncc(-c3ccc(N4CCNCC4)nc3)n3cc(COc4ccc5ccccc5n4)nc23)CC1 [Cpd 118, 1-(5-(6-(Piperazin-1-yl)pyridin-3-yl)-2-((quinolin-2-yloxy)methyl)imidazo[1,2-a]pyrazin-8-yl)piperidin-4-ol trifluoroacetic acid salt] | – | – | – | 7.11 | 7.52
c1ccc2nc(OCc3cn4c(-c5ccc(N6CCNCC6)nc5)cnc(-c5ccncc5)c4n3)ccc2c1 [Cpd 120, 2-((5-(6-(Piperazin-1-yl)pyridin-3-yl)-8-(pyridin-4-yl)imidazo[1,2-a]pyrazin-2-yl)methoxy)quinoline trifluoroacetic acid salt] | – | – | – | 7.70 | 7.82
Nc1ccc(-c2cnc(N3CCOCC3)c3nc(COc4ccc5ccccc5n4)cn23)cn1 [Cpd 122, 5-(8-Morpholino-2-((quinolin-2-yloxy)methyl)imidazo[1,2-a]pyrazin-5-yl)pyridin-2-amine methane sulfonic acid salt] | 98.2 ng/g | – | 35.6 ng/mL | – | 8.10
CN1CCN(c2ncc(-c3cnc(N4CCOCC4)c4nc(COc5ccc6ccccc6n5)cn34)cn2)CC1 [Cpd 123, 4-(5-(2-(4-Methylpiperazin-1-yl)pyrimidin-5-yl)-2-((quinolin-2-yloxy)methyl)imidazo[1,2-a]pyrazin-8-yl)morpholine methane sulfonic acid salt] | – | – | – | 7.72 | 8.10
c1ccc2nc(OCc3cn4c(-c5ccc(N6CCNCC6)nc5)cnc(N5CCOCC5)c4n3)ncc2c1 [Cpd 124, 4-(5-(6-(Piperazin-1-yl)pyridin-3-yl)-2-((quinazolin-2-yloxy)methyl)imidazo[1,2-a]pyrazin-8-yl)morpholine trifluoroacetic acid salt] | – | – | – | 6.94 | 6.91
CN(C)c1ccc(-c2cnc(N3CCOCC3)c3nc(COc4ccc5ccccc5n4)cn23)cn1 [Cpd 127, N,N-Dimethyl-5-(8-morpholino-2-((quinolin-2-yloxy)methyl)imidazo[1,2-a]pyrazin-5-yl)pyridin-2-amine methane sulfonic acid salt] | – | – | – | 7.21 | 7.52
CN1CCN(c2ccc(-c3cnc(N4CCOCC4)c4nc(COc5ccc6ccccc6n5)cn34)cn2)CC1 [Cpd 130, 4-(5-(6-(4-Methylpiperazin-1-yl)pyridin-3-yl)-2-((quinolin-2-yloxy)methyl)imidazo[1,2-a]pyrazin-8-yl)morpholine] | – | – | – | 7.38 | 7.80
Clc1c(N2CC(c3ccc4ccccc4n3)C2)nc2c(N3CCOCC3)ncc(-c3ccc(N4CCNCC4)nc3)n12 [Cpd 132, 4-(3-Chloro-5-(6-(piperazin-1-yl)pyridin-3-yl)-2-(3-(quinolin-2-yl)azetidin-1-yl)imidazo[1,2-a]pyrazin-8-yl)morpholine trifluoroacetic acid salt] | – | – | – | 5.79 | 6.06
c1ccc2nc(OCc3cn4c(-c5ccc(N6CCNCC6)nc5)cnc(C5CCOCC5)c4n3)ccc2c1 [compound 83, 2-((5-(6-(piperazin-1-yl)pyridin-3-yl)-8-(tetrahydro-2H-pyran-4-yl)imidazo[1,2-a]pyrazin-2-yl)methoxy)quinoline trifluoroacetic acid salt] | – | – | – | 6.50 | 6.57
